Experiments:
Caspase-3 = assay: Western blot of Caspase-3 in Skmel-28 melanoma cells treated with CoQ10 building block components; format: cell-based; conditions: for Caspase-3 expression / apoptotic effect: all concentrations and time points tested
Procedure: (§1) Skmel-28 melanoma cells were cultured in DMEM/F12 supplemented with 5% Fetal Bovine Serum (FBS) and 1× final concentration of Antibiotics. The cells were grown to 85% confluency and treated with building block components for 3, 6, 12 and 24 hours. The cells were then pelleted and a Western blot analysis was performed.
(§2) In the Western Blot Analysis, the cells were pelleted in cold PBS, lysed, and the protein levels were quantified using a BCA protein assay. The whole cell lysate was loaded in a 4% loading 12% running Tris-HCl gel. The proteins were then transferred to a nitrocellulose paper then blocked with a 5% milk Tris-buffered solution for 1 hour. The proteins were then exposed to primary antibodies (Bcl-2 and Caspase-3) overnight. The nitrocellulose paper was then exposed to Pico Chemilluminescent for 5 min and the protein expression was recorded. After exposure, actin was quantified using the same method. Using ImageJ the levels of protein expression were quantified. A t-Test was used to analyze for statistical significance.

Bcl-2 = assay: Western blot of Bcl-2 in Skmel-28 melanoma cells treated with CoQ10 building block components; format: cell-based
Procedure: as §1, §2

HDFa cells = assay: SeaHorse XF analyzer OCR and ECAR; format: cell-based, human
Text: Environmental influencers (e.g., MIMs or Epi-shifters) may also be identified by changes in cellular energetics. One example of the measurement of cellular energetics are the real-time measures of the consumption of molecular oxygen and/or the change in pH of the media of a cell culture. For example, the ability of a potential epi-shifter to modulate the metabolic state of a cell may be analyzed using, for example, the XF24 Analyzer (Seahorse, Inc.). This technology allows for real time detection of oxygen and pH changes in a monolayer of cells in order to evaluate the bioenergetics of a cell microenvironment. The XF24 Analyzer measures and compares the rates of oxygen consumption (OCR), which is a measure of aerobic metabolism, and extracellular acidification (ECAR), which is a measure of glycolysis, both key indicators of cellular energetics.
(SeaHorse Biosciences Inc, North Billerica, Mass.).
In this experiment, the OCR and extracellular acidification rate (ECAR) in normal cells lines were obtained in the presence and absence of CoQ10 to determine baseline values. It was observed that in its native nutrient environment, the basal OCR rates in normal cells lines are different, and are usually a function of the physiological roles of the cells in the body.
For example, one set of experiments were conducted using the non-cancerous cell line HDFa, which is a human adult dermal fibroblast cell line. Fibroblasts are cells that primarily synthesize and secrete extracellular matrix (ECM) components and collagen that form the structural framework (stroma) for tissues. In addition, fibroblasts are known to serve as tissue ambassadors of numerous functions such as wound healing and localized immnomodulation. Under normal physiological conditions, energy requirements in normal fibroblasts are met using a combination of glycolysis and oxidative phosphorylation—the glycolysis providing the necessary nutrients for synthesis of ECM.
FIGS. 29 and 30 describe the OCR in HDFa and HASMC cells grown in physiologically normal glucose (about 4.6 mM) and high glucose (hyperglycemic) conditions.

[1] = system: neonatal fibroblast cells; assay: Cell proliferation assay (coulter counter); format: cell-based; conditions: HB 500 nM, 5 μM, 25 μM alone and with benzoquinone 25, 50, 100 μM; 24 hours
Procedure: A cell proliferation assay was also performed on neonatal fibroblast cells. The concentrations of HB tested were 500 nM, 5 μM, and 25 μM. HB was also tested in combination with benzoquinone at a concentrations of 25 μM, 50 μM, and 100 μM. […] The cells were trypsinized and quantified using a coulter counter.

Melanoma cells = assay: Cell proliferation assay (live cell count) of building block combinations; format: cell-based
Procedure: Cell Proliferation Assay of the Combination of 4-Hydroxy-Benzoate with Benzoquinone: This set of experiments used a cell proliferation assay to assess the effect of combining different building block molecules on cell proliferation.
The first study examined the effect of combining 4-Hydroxy-Benzoate with Benzoquinone. Cells were incubated for 48 hours, after which a cell count was performed for the live cells. Each test group was compared to the control, and each combination groups were compared to Benzoquinone control. The compounds were statistically analyzed for the addition of Benzoquinone.
Additional studies were performed testing additional molar ratios. For the first test 4-Hydroxybenzoic were tested at concentrations of 500 nM, 1 μM, and 50 μM. These concentrations were tested in combination with 2,3-Dimethoxy-5-methyl-p-benzoquinone (Benzo). The concentration of Benzo tested were 25 μM, 50 μM, and 100 μM. Melanoma cells were grown to 80% confluency and seeded in 6 well plates at a concentration of 40K cells per well. The cells were treated with CoQ10, 4-Hydroxybenzoate, Benzo, and a combination of 4-Hydroxybenzoate/Benzo.
A T-test was performed with p<0.05 as statistically significant.

tumor cells = conditions: cited from earlier work
[2] = 24 hours, concentration not given
[3] = all concentrations and time points tested

SMILES: NC(Cc1ccccc1)C(=O)O (racemic) [DL-Phenylalanine]
- Caspase-3 expression (Caspase-3; 3 hours, concentration not given): statistically significant increase
- Bcl-2 expression (Bcl-2; [2]): statistically significant decrease

SMILES: N[C@H](Cc1ccccc1)C(=O)O [D-Phenylalanine]
- Caspase-3 expression (Caspase-3; 5 μM, 6 hours): significant increase
- Caspase-3 expression (Caspase-3; 100 μM, 6 hours): significant increase
- Bcl-2 expression (Bcl-2; 5 μM, 3 hours): significant reduction
- Bcl-2 expression (Bcl-2; 5 μM, 6 hours): significant reduction
- Bcl-2 expression (Bcl-2; 25 μM, 3 hours): significant reduction
- Bcl-2 expression (Bcl-2; 25 μM, 6 hours): significant reduction
- Bcl-2 expression (Bcl-2; 100 μM, 6 hours): significant reduction

SMILES: Cc1ncc(CO)c(CO)c1O [Pyridoxine]
- Bcl-2 expression (Bcl-2; [2]): significant reduction

SMILES: N[C@H](Cc1ccc(O)cc1)C(=O)O [D-Tyrosine]
- Caspase-3 expression (Caspase-3; 1 μM, 12 hours): increase
- Caspase-3 expression (Caspase-3; 1 μM, 24 hours): increase
- Caspase-3 expression (Caspase-3; 5 μM, 3 hours): significantly increased
- Caspase-3 expression (Caspase-3; 5 μM, 12 hours): significantly increased
- Caspase-3 expression (Caspase-3; 5 μM, 24 hours): significantly increased
- Bcl-2 expression (Bcl-2; 5 μM, 12 hours): reduction
- Bcl-2 expression (Bcl-2; 5 μM, 24 hours): reduction
- Bcl-2 expression (Bcl-2; 15 μM, 12 hours): reduction
- Bcl-2 expression (Bcl-2; 15 μM, 24 hours): reduction

SMILES: CC(C)(CO)[C@@H](O)C(=O)NCCCO [Panthenol]
- Bcl-2 expression (Bcl-2; 25 μM, time not stated): significant reduction

SMILES: CC(=O)SCCNC(=O)CCNC(=O)[C@H](O)C(C)(C)COP(=O)(O)OP(=O)(O)OC[C@H]1O[C@@H](n2cnc3c(N)ncnc32)[C@H](O)[C@@H]1OP(=O)(O)O [Acetyl-CoA]
- Caspase-3 expression / apoptotic effect (Caspase-3): no significant observed reduction in Bcl-2 or increase in Caspase-3 expression
- Bcl-2 expression (Bcl-2; [3]): no significant observed reduction

SMILES: COC1=C(OC)C(=O)C(C/C=C(\C)CC/C=C(\C)CC/C=C(\C)CC/C=C(\C)CC/C=C(\C)CC/C=C(\C)CC/C=C(\C)CC/C=C(\C)CC/C=C(\C)CCC=C(C)C)=C(C)C1=O [compound 31510]
- ECAR (HDFa cells; Hypoxia (5.5 mM), 50 μM): 5 mpH/min
- ECAR (HDFa cells; Hypoxia (5.5 mM), 100 μM): 5 mpH/min
- ECAR (HDFa cells; Hypoxia (22 mM), 50 μM): 6 mpH/min
- ECAR (HDFa cells; Hypoxia (22 mM), 100 μM): 8 mpH/min
- ECAR (HDFa cells; Normoxia (5.5 mM), 50 μM): 6 mpH/min
- ECAR (HDFa cells; Normoxia (5.5 mM), 100 μM): 6 mpH/min
- ECAR (HDFa cells; Normoxia (22 mM), 50 μM): 5 mpH/min
- ECAR (HDFa cells; Normoxia (22 mM), 100 μM): 5 mpH/min

SMILES: O=C(O)c1ccc(O)cc1 [4-Hydroxybenzoate]
- reduction in fibroblast cells [1]: did not show a significant reduction
- cell number vs control (Melanoma cells; 48 hours incubation): significant decrease in cell number
- cell proliferation vs control (Melanoma cells; additional molar ratios, HB 500 nM, 1 μM, 50 μM): significant decrease in cell proliferation

SMILES: COc1cc(C(O)C(=O)O)ccc1O (centres unmarked) [3-methoxy-4-hydroxymandelate]
- Caspase-3 expression / apoptotic effect (Caspase-3): no statistically significant apoptotic effect
- Bcl-2 expression (Bcl-2; [3]): downward trend

SMILES: C=C1/C(=C\C=C2/CCC[C@]3(C)[C@@H]([C@H](C)CCCC(C)(C)O)CC[C@@H]23)C[C@@H](O)C[C@@H]1O [Vitamin D3, 1α, 25-dihydroxyvitamin D3]
- expression of anti-apoptotic proteins BCL2 and BCL-XL (tumor cells; Deeb et al. 2007): repressing the expression
- expression of pro-apoptotic proteins (BAX, BAK, BAD) (tumor cells; Deeb et al. 2007): inducing the expression
- gene transcription of p21WAFI/CIPI (tumor cells; Deeb et al. 2007): induce gene transcription
- expression of VEGF (tumor cells; Masuda and Jones 2006): inhibit the expression
- proliferation of tumor-derived endothelial cells (tumor cells; Masuda and Jones 2006): inhibit the proliferation

SMILES: NC(Cc1ccc(O)cc1)C(=O)O (racemic) [DL-Tyrosine]
- Caspase-3 expression (Caspase-3; 5 μM, 12 hours): increase
- Caspase-3 expression (Caspase-3; 15 μM, 12 hours): increase
- Bcl-2 expression (Bcl-2; 1 μM, 12 hours): statistical decrease
- Bcl-2 expression (Bcl-2; 5 μM, 24 hours): statistical decrease
- Bcl-2 expression (Bcl-2; 15 μM, 12 hours): statistical decrease

SMILES: N[C@@H](Cc1ccc(O)cc1)C(=O)O [L-Tyrosine]
- Bcl-2 expression (Bcl-2; 500 μM, 24 hours): statistically significant decrease

SMILES: COc1cc(C(=O)O)ccc1O [Vanillic acid]
- Bcl-2 expression (Bcl-2; 500 nM, 24 hours): significantly reduce
- Bcl-2 expression (Bcl-2; 5 μM, 24 hours): significantly reduce

SMILES: C[C@@](O)(CCO)CC(=O)O [Mevalonic Acid]
- Caspase-3 expression / apoptotic effect (Caspase-3): no significant reduction in Bcl-2 expression or an increase in Caspase-3 expression
- Bcl-2 expression (Bcl-2; [3]): no significant reduction

SMILES: O=C(O)C(=O)Cc1ccc(O)cc1 [4-Hydroxy-phenylpyruvate]
- Caspase-3 expression (Caspase-3; 5 μM, 12 hours): significant increase
- Caspase-3 expression (Caspase-3; 15 μM, 12 hours): significant increase
- Bcl-2 expression (Bcl-2; 5 μM, 24 hours): significant reduction
- Bcl-2 expression (Bcl-2; 15 μM, 24 hours): significant reduction

SMILES: CC(=O)NCC(=O)O [Acetylglycine]
- Bcl-2 expression (Bcl-2; 5 μM, 12 hours): significant decrease
- Bcl-2 expression (Bcl-2; 25 μM, 12 hours): significant decrease
- Bcl-2 expression (Bcl-2; 100 μM, 24 hours): significant decrease

SMILES: N[C@@H](Cc1ccccc1)C(=O)O [L-Phenylalanine]
- Bcl-2 expression (Bcl-2; 100 μM, 3 hours): statistically significant decrease
- Bcl-2 expression (Bcl-2; 100 μM, 12 hours): statistically significant decrease
